Measured values: US7449463B2, “Morpholinyl containing benzimidazoles as inhibitors of respiratory syncytial virus replication” (Tibotec Pharmaceuticals Ltd., priority 2003, dated 2008)

Assays:
[1] = test system: Respiratory Syncytial Virus; experiment: microbe, parasite or virus in culture; format: cell-based; details: for EC50: human respiratory syncytial virus, 168 h
Description: In vitro Screening for Activity against Respiratory Syncytial Virus.
The percent protection against cytopathology caused by viruses (antiviral activity or EC50) achieved by tested compounds and their cytotoxicity (CC50) are both calculated from dose-response curves. The selectivity of the antiviral effect is represented by the selectivity index (SI), calculated by dividing the CC50 (cytotoxic dose for 50% of the cells) by the EC50 (antiviral activity for 50% of the cells).
Automated tetrazolium-based colorimetric assays were used for determination of EC50 and CC50 of test compounds. Flat-bottom, 96-well plastic microtiter trays were filled with 180 μl of Eagle's Basal Medium, supplemented with 5% FCS (0% for FLU) and 20 mM Hepes buffer. Subsequently, stock solutions (7.8× final test concentration) of compounds were added in 45 μl volumes to a series of triplicate wells so as to allow simultaneous evaluation of their effects on virus- and mock-infected cells. Five five-fold dilutions were made directly in the microtiter trays using a robot system. Untreated virus controls, and HeLa cell controls were included in each test. Approximately 100 TCID50 of Respiratory Syncytial Virus was added to two of the three rows in a volume of 50 μl. The same volume of medium was added to the third row to measure the cytotoxicity of the compounds at the same concentrations as those used to measure the antiviral activity. After two hours of incubation, a suspension (4×10^5 cells/ml) of HeLa cells was added to all wells in a volume of 50 μl. The cultures were incubated at 37° C. in a 5% CO2 atmosphere. Seven days after infection the cytotoxicity and the antiviral activity was examined spectrophotometrically. To each well of the microtiter tray, 25 μl of a solution of MTT (3-(4,5-dimethylthiazol-2-yl)-2,5-diphenyltetrazolium bromide) was added. The trays were further incubated at 37° C. for 2 hours, after which the medium was removed from each cup. Solubilization of the formazan crystals was achieved by adding 100 μl 2-propanol. Complete dissolution of the formazan crystals were obtained after the trays have been placed on a plate shaker for 10 min. Finally, the absorbances were read in an eight-channel computer-controlled photometer (Multiskan MCC, Flow Laboratories) at two wavelengths (540 and 690 nm). The absorbance measured at 690 nm was automatically subtracted from the absorbance at 540 nm, so as to eliminate the effects of non-specific absorption.

[2] = RSV-infected HeLa cells, MTT readout seven days after infection, −log of EC50 in molar units
[3] = pEC50 (−log of EC50 when expressed in molar units), protection against RSV cytopathology

Cc1ccc(S(=O)(=O)CCO)c(NCc2ccc3nc(NCCCN4CCOCC4)n(Cc4nc(C)ccc4O)c3c2)c1 [Compound 12]
EC50 [1, 2]: 0.251 nM | melting point: 170 °C

Cc1cc(C)cc(NCc2ccc3nc(NCCCN4CCOCC4)n(Cc4nc(C)ccc4O)c3c2)c1 [Compound 23, 2-[6-[(3,5-dimethyl-phenylamino)-methyl]-2-(3-morpholin-4-yl-propylamino)-benzoimidazol-1-ylmethyl]-6-methyl-pyridin-3-ol]
EC50 [1, 2]: 1 nM | melting point: 199 °C

Cc1ccc(O)c(Cn2c(NCCCN3CCOCC3)nc3ccc(CNc4c(C)cc(CCC#N)cc4C)cc32)n1 [Compound 49, 3-(4-{[3-(3-hydroxy-6-methyl-pyridin-2-ylmethyl)-2-(3-morpholin-4-yl-propylamino)-3H-benzoimidazol-5-ylmethyl]-amino}-3,5-dimethyl-phenyl)-propionitrile]
EC50 [1, 2]: 39.8 nM | melting point: 114 °C

Cc1ccc(I)c(NCc2ccc3nc(NCCCN4CCOCC4)n(Cc4nc(C)ccc4O)c3c2)c1 [Compound 50]
EC50 [1, 2]: 50.1 nM | melting point: 225 °C

Cc1cc(C)cc(N(CCO)Cc2ccc3nc(NCCCN4CCOCC4)n(Cc4nc(C)ccc4O)c3c2)c1 [Compound 58, 2-[6-{[(3,5-dimethyl-phenyl)-(2-hydroxy-ethyl)-amino]-methyl}-2-(3-morpholin-4-yl-propylamino)-benzimidazol-1-ylmethyl]-6-methyl-pyridin-3-ol]
EC50 [1, 2]: 0.398 nM | melting point: 180 °C

Cc1cc(C)cc(N(CCCC(N)=O)Cc2ccc3nc(NCCCN4CCOCC4)n(Cc4nc(C)ccc4O)c3c2)c1 [Compound 59, 2-[6-{[(3,5-dimethyl-phenyl)-(3-aminocarbonyl-propyl)-amino]-methyl}-2-(3-morpholin-4-yl-propylamino)-benzimidazol-1-ylmethyl]-6-methyl-pyridin-3-ol]
EC50 [1, 2]: 0.251 nM | melting point: 170 °C

Cc1cc(C)cc(N(CCCC(=O)O)Cc2ccc3nc(NCCCN4CCOCC4)n(Cc4nc(C)ccc4O)c3c2)c1 [Compound 62, 4-{(3,5-dimethyl-phenyl)-[3-(3-hydroxy-6-methyl-pyridin-2-ylmethyl)-2-(3-morpholin-4-yl-propylamino)-3H-benzoimidazol-5-ylmethyl]-amino}-butyric acid]
EC50 [1, 2]: 0.398 nM | melting point: 121 °C

Cc1cc(C)cc(N(CCN)Cc2ccc3nc(NCCCN4CCOCC4)n(Cc4nc(C)ccc4O)c3c2)c1 [Compound 66, 2-[6-{[(2-amino-ethyl)-(3,5-dimethyl-phenyl)-amino]-methyl}-2-(3-morpholin-4-yl-propylamino)-benzoimidazol-1-ylmethyl]-6-methyl-pyridin-3-ol]
EC50 [1, 2]: 1.26 nM | melting point: 196 °C

CCOC(=O)CCCN(Cc1ccc2nc(NCCCN3CCOCC3)n(Cc3nc(C)ccc3O)c2c1)c1cc(C)cc(C)c1 [Compound 71, 4-{(3,5-dimethyl-phenyl)-[3-(3-hydroxy-6-methyl-pyridin-2-ylmethyl)-2-(3-morpholin-4-yl-propylamino)-3H-benzoimidazol-5-ylmethyl]-amino}-butyric acid ethyl ester]
EC50 [1, 2]: 2.51 nM | melting point: 130 °C

Cc1ccc(O)c(Cn2c(NCCCN3CCOCC3)nc3ccc(Cc4c(C)cc(NCCO)cc4C)cc32)n1 [Compound 143, 2-[6-[4-(2-hydroxy-ethylamino)-2,6-dimethylbenzyl]-2-(3-morpholin-4-yl-propylamino)-benzoimidazol-1-ylmethyl]-6-methyl-pyridin-3-ol]
EC50 [1, 2]: 10 nM | melting point: 162 °C

CCn1ncc(Cc2ccc3nc(NCCCN4CCOCC4)n(Cc4nc(C)ccc4O)c3c2)c1NCCO [Compound 152]
EC50 [1, 2]: 7.94 nM | melting point: 168 °C

Cc1ccc2c(c1)N(Cc1ccc3nc(NCCCN4CCOCC4)n(Cc4nc(C)ccc4O)c3c1)CC2 [Compound 153]
EC50 [1, 2]: 50.1 nM | melting point: 212 °C

Cc1cc(C)c2nc(NCCCN3CCOCC3)n(Cc3nc(C)ccc3O)c2c1 [Compound 154, 2-[4,6-dimethyl-2-(3-morpholin-4-yl-propylamino)-benzoimidazol-1-yl-methyl]-6-methyl-pyridin-3-ol]
EC50 [1, 2]: 126 nM | melting point: 228 °C

Cc1cc(C)c2c(c1)nc(NCCCN1CCOCC1)n2Cc1nc(C)ccc1O [Compound 156, 2-[5,7-dimethyl-2-(3-morpholin-4-yl-propylamino)-benzoimidazol-1-ylmethyl]-6-methyl-pyridin-3-ol]
EC50 [1, 2]: 12600 nM | melting point: 234 °C

Cc1cccc(NC(=O)c2ccc3c(c2)nc(NCCCN2CCOCC2)n3Cc2nc(C)ccc2O)c1 [Compound 158]
EC50 [1, 2]: > 100000 nM | melting point: 170 °C

Cc1cccc(NC(=O)c2ccc3nc(NCCCN4CCOCC4)n(Cc4nc(C)ccc4O)c3c2)c1 [Compound 159]
EC50 [1, 2]: 20000 nM | melting point: 168 °C

C#Cc1cccc(NCc2ccc3nc(NCCCN4CCOCC4)n(Cc4nc(C)c(C)nc4C)c3c2)c1 [Compound 290]
Activity [1, 3]: 7

Cc1nc(C)c(Cn2c(NCCCN3CCOCC3)nc3ccc(CNc4ccc(C(N)=O)cc4)cc32)nc1C [Compound 291]
Activity [1, 3]: 7

Cc1cccc(NCc2ccc3c(c2)nc(NCCCN2CCOCC2)n3C2CCCc3nc(C)c(C)nc32)c1CCO (centres unmarked) [Compound 292]
Activity [1, 3]: 7

Cc1cccc(NCc2ccc3c(c2)nc(NCCCN2CCOCC2)n3C2CCCc3nc(C)c(C)nc32)c1CO (centres unmarked) [Compound 293]
Activity [1, 3]: 7

OCc1ccc2c(c1)nc(NCCCN1CCOCC1)n2Cc1cccc(Br)n1 [Compound 294]
Activity [1, 3]: 6.9

Cc1cccc(NCc2ccc3nc(NCCCN4CCOCC4)n(Cc4cccc5c4ncn5C)c3c2)c1 [Compound 295]
Activity [1, 3]: 6.9

Cn1cnc2c(Cn3c(NCCCN4CCOCC4)nc4ccc(CNc5ccc(C(N)=O)cc5)cc43)cccc21 [Compound 296]
Activity [1, 3]: 6.9

COc1ccc(C)nc1Cn1c(NCCCN2CCOCC2)nc2ccc(CNc3cccc(Br)c3)cc21 [Compound 297]
Activity [1, 3]: 6.9

COc1ccc(C)nc1Cn1c(NCCCN2CCOCC2)nc2ccc(CNc3cccc(C)c3CO)cc21 [Compound 298]
Activity [1, 3]: 6.9

Cc1nc(C)c(Cn2c(NCCCN3CCOCC3)nc3ccc(CNc4ccccc4CCN4CCOCC4)cc32)nc1C [Compound 299]
Activity [1, 3]: 6.9

Cc1nc(C)c(Cn2c(NCCCN3CCOCC3)nc3ccc(CNc4cccc(CCO)c4)cc32)nc1C [Compound 300]
Activity [1, 3]: 6.9

Cc1ccc(CCCO)c(NCc2ccc3c(c2)nc(NCCCN2CCOCC2)n3Cc2ncccc2O)c1 [Compound 301]
Activity [1, 3]: 6.8

Cc1cc(C)cc(N(CCCC(N)=O)Cc2ccc3nc(NCCCN4CCOCC4)n(Cc4ccc(F)cc4)c3c2)c1 [Compound 315]
Activity [1, 3]: 6.5

Cc1ccc(CCCO)c(NCc2ccc3c(c2)nc(NCCCN2CCOCC2)n3Cc2cccc3c2ncn3C)c1 [Compound 328]
Activity [1, 3]: 5.8

Cc1nc2c(nc1C)C(n1c(NCCCN3CCOCC3)nc3cc(CNc4cc(Cl)cc(Cl)c4)ccc31)CCC2 (centres unmarked) [Compound 331]
Activity [1, 3]: 5.7

Cc1cccc(Cn2c(NCCCN3CCOCC3)nc3ccc(CNc4ccccc4CCO)cc32)n1 [Compound 333]
Activity [1, 3]: 5.5

Cc1cc(C)cc(NCc2ccc3nc(NCCCN4CCOCC4)n(Cc4cccc(C)n4)c3c2)c1 [Compound 334]
Activity [1, 3]: 5.5

Cc1cccc(Cn2c(NCCCN3CCOCC3)nc3ccc(CNc4cccc(C)c4CCO)cc32)n1 [Compound 335]
Activity [1, 3]: 5.5

Cc1nc2c(nc1C)C(n1c(NCCCN3CCOCC3)nc3cc(CO)ccc31)CCC2 (centres unmarked) [Compound 336]
Activity [1, 3]: 5.4

Cc1cccc(NCc2ccc3nc(NCCCN4CCOCC4)n(Cc4cccc(C)n4)c3c2)c1 [Compound 338]
Activity [1, 3]: 5.4

Cc1nc2c(nc1C)C(n1c(NCCCN3CCOCC3)nc3cc(CNc4ccccc4C(N)=O)ccc31)CCC2 (centres unmarked) [Compound 340]
Activity [1, 3]: 5.3

Cc1cccc(Cn2c(NCCCN3CCOCC3)nc3ccc(CNc4ccccc4CCN4CCOCC4)cc32)n1 [Compound 345]
Activity [1, 3]: 5

COc1ccc(C)nc1Cn1c(NCCCN2CCOCC2)nc2ccc(CO)cc21 [Compound 346]
Activity [1, 3]: 4.9

Cc1cccc(Cn2c(NCCCN3CCOCC3)nc3ccc(CNc4cccc(C)c4CO)cc32)n1 [Compound 347]
Activity [1, 3]: 4.9

COc1ccc(C)nc1Cn1c(NCCCN2CCOCC2)nc2cc(CNc3cc(C)ccc3CCCO)ccc21 [Compound 348]
Activity [1, 3]: 4.8

Cc1ccc(CCCO)c(NCc2ccc3c(c2)nc(NCCCN2CCOCC2)n3Cc2cccc(C)n2)c1 [Compound 350]
Activity [1, 3]: 4.7

Cc1ccc(O)c(Cn2c(NCCCN3CCOCC3)nc3ccccc32)n1 [compound 155]
Activity [1, 2]: 6.8
